Data taken from ChEMBL document CHEMBL5154776, “Discovery of Potent and Orally Bioavailable Platelet-Derived Growth Factor Receptor (PDGFR) Inhibitors for the Treatment of Osteosarcoma” (J Med Chem, 2022).

Legend:
[1] = molecular target: T1, Platelet-derived growth factor receptor beta (Homo sapiens, UniProt P09619); experiment: Inhibition of PDGFRbeta (unknown origin) by caliper mobility shift assay
[2] = molecular target: T1, Platelet-derived growth factor receptor beta; experiment: Inhibition of PDGFRbeta (unknown origin) at 100 nM by caliper mobility shift assay relative to control
[3] = molecular target: Platelet-derived growth factor receptor alpha (Homo sapiens, UniProt P16234); conditions: dose 100.0 nM
Platelet-derived growth factor receptor alpha, sequence (P16234 whole entry): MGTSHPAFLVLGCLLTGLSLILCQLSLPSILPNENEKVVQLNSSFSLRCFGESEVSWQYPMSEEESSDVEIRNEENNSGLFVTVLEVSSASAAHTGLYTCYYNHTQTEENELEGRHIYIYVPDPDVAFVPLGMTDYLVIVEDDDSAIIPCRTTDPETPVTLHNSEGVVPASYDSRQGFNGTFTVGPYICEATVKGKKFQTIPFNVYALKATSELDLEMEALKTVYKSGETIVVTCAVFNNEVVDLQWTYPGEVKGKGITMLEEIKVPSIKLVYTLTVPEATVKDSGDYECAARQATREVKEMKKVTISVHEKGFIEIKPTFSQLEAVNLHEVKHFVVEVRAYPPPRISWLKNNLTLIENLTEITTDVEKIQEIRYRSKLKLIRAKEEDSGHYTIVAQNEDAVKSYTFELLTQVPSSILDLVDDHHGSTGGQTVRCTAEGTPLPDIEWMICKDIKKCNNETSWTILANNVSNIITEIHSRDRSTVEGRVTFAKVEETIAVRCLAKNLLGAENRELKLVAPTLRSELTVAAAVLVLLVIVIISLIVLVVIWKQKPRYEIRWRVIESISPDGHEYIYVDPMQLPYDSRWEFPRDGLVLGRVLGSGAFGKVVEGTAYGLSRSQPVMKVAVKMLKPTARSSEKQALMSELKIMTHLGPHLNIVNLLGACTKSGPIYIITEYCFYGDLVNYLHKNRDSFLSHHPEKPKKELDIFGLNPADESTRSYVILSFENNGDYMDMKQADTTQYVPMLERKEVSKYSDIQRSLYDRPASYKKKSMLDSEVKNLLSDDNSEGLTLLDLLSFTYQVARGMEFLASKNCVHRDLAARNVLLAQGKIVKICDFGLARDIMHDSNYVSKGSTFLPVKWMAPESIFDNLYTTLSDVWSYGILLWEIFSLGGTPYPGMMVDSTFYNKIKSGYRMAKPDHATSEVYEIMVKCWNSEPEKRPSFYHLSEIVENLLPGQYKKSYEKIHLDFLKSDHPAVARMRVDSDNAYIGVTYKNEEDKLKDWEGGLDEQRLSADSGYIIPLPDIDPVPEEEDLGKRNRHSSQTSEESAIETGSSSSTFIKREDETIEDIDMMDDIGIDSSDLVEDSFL
Description: Inhibition of PDGFRalpha (unknown origin) at 100 nM by caliper mobility shift assay relative to control

T1 sequence (P09619 whole entry): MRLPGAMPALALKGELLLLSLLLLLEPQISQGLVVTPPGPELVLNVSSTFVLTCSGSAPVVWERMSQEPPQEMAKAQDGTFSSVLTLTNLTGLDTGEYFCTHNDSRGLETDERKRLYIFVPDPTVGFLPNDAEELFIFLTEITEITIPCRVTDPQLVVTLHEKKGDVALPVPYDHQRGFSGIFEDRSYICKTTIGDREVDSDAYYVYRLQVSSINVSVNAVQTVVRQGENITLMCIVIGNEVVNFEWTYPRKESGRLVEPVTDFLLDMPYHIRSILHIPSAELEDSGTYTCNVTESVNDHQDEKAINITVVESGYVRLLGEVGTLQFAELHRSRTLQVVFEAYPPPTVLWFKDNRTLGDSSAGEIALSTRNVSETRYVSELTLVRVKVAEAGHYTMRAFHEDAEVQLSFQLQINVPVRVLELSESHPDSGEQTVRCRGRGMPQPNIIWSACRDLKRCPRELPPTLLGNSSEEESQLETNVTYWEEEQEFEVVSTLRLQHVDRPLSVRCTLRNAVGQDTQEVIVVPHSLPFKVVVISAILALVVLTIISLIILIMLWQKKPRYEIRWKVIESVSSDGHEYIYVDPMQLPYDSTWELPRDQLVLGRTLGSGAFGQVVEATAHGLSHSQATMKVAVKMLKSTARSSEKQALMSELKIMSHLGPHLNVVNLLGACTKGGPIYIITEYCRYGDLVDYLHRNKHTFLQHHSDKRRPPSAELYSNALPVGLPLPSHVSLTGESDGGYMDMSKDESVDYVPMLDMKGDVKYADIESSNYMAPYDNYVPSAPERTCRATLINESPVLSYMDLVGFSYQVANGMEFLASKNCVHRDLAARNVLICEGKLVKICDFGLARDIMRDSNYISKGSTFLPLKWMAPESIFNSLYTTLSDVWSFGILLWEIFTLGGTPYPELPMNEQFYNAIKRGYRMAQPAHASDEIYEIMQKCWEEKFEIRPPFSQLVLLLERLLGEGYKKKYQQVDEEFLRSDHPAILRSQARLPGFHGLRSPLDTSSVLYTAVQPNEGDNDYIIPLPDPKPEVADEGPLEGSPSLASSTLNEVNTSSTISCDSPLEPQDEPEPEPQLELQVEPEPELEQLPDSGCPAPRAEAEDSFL

Question: Which IC50 [1] does the source give for Cc1cnc(Nc2ccc(N3CCOCC3)cc2)nc1Nc1ccc2cn[nH]c2c1 here?
Answer: Its IC50 is 6.9 nM.

Question: Which results are given for Cc1cnc(Nc2ccc(N3CCN(C)CC3)cc2)nc1Nc1ccc2[nH]ccc2c1?
Answer: inhibition [2]: 78.6%; inhibition [3]: 57.3%

Question: For Cc1cnc(Nc2ccc(N3CCN(C)CC3)cc2)nc1Nc1ccc2nccnc2c1, which inhibition [2] is on record?
Answer: Its inhibition is 74.1%.

Question: Which inhibition [2] does the source give for Cc1cnc(Nc2ccc(N3CCN(C)CC3)cc2)nc1Nc1ccc2c(c1)CCCC2 here?
Answer: Its inhibition is 90.4%.

Question: With Cc1cnc(Nc2ccc(N3CCN(C)CC3)cc2)nc1Nc1ccc2[nH]ncc2c1 as the compound, how does the inhibition [2] read?
Answer: The inhibition was 84.1%.

Question: With Cc1cnc(Nc2ccc(N3CCC(N4CCN(C)CC4)CC3)cc2)nc1Nc1ccc2cn[nH]c2c1 as the compound, how does the IC50 [1] read?
Answer: The IC50 was 16.7 nM.

Question: How did the inhibition [2] turn out when Cc1cnc(Nc2ccc(N3CCN(C)CC3)cc2)nc1Nc1ccc2nn(CCNC(=O)OC(C)(C)C)cc2c1 was run?
Answer: The inhibition was 71.1%.

Question: Which inhibition [2] does the source give for CN1CCN(c2ccc(Nc3nc(Nc4ccc5cn[nH]c5c4)c4sccc4n3)cc2)CC1 here?
Answer: The inhibition was 21.2%.

Question: Cc1cc(Nc2ccc3cn[nH]c3c2)nc(Nc2ccc(N3CCN(C)CC3)cc2)n1 was tested. Which inhibition [2] did it give?
Answer: The inhibition was 7.2%.

Question: With CN1CCN(c2ccc(Nc3ncc(Br)c(Nc4ccc5cn[nH]c5c4)n3)cc2)CC1 as the compound, how does the inhibition [2] read?
Answer: The inhibition was 97.6%.

Question: And the inhibition [3]?
Answer: Its inhibition is 89.9%.

Question: COc1cc(N2CCN(C)CC2)ccc1Nc1ncc(C)c(Nc2ccc3cn[nH]c3c2)n1 was tested. Which IC50 [1] did it give?
Answer: The IC50 was 44.1 nM.

Question: With Cc1cnc(Nc2ccc(N3CCNCC3)cc2)nc1Nc1ccc2cn[nH]c2c1 as the compound, how does the IC50 [1] read?
Answer: Its IC50 is 110 nM.

Question: Which inhibition [2] does the source give for Cc1cnc(Nc2ccc(N3CCN(C)CC3)cc2)nc1Nc1ccc2cccnc2c1 here?
Answer: Its inhibition is 91%.

Question: Cc1cnc(Nc2ccc(N3CCN(C)CC3)cc2)nc1Nc1ccc2c(ccn2C)c1 was tested. Which inhibition [2] did it give?
Answer: The inhibition was 79.2%.

Question: For CN1CCN(c2ccc(Nc3ncc(Cl)c(Nc4ccc5cn[nH]c5c4)n3)cc2)CC1, which inhibition [2] is on record?
Answer: The inhibition was 95.8%.

Question: Cc1cnc(Nc2ccc(N3CCN(C)CC3)cc2)nc1Nc1ccc2c(C)n[nH]c2c1 was tested. Which inhibition [2] did it give?
Answer: The inhibition was 98%.

Question: For Cc1cnc(Nc2ccc(C(=O)NCCN3CCOCC3)cc2)nc1Nc1ccc2cn[nH]c2c1, which IC50 [1] is on record?
Answer: Its IC50 is 15.9 nM.
